Results on nine compounds are retold here after publication PMC9494209 (RSC Advances, 2022).

The subject of one experiment is SARS-CoV-2. The class given is cell-based. The settings on record: for SI (selectivity index): IC50 Vero cell cytotoxicity divided by EC50 of the antiviral assay; for EC50: read-out: Antiviral assay (qPCR) EC50, Vero E6 cells, five concentrations, ± SE. (In qPCR the cycle at which signal appears reflects the starting amount.)
A further experiment concerns the target SARS-CoV-2 M^pro (Severe acute respiratory syndrome coronavirus 2, UniProt P0DTD1). As to the kind of experiment: biochemical. The note with it: ± SE, triplicate readings; for IC50: IC50 against SARS-CoV-2 M^pro. The class given is biochemical.

`Cn1c(C(=O)Nc2ccc3c(c2)OCCO3)cc2c(=O)n3ccccc3nc21` [Compound 29, N-(2,3-Dihydrobenzo[b][1,4]dioxin-6-yl)-1-methyl-4-oxo-1,4-dihydropyrido[1,2-a]pyrrolo-[2,3-d]pyrimidine-2-carboxamide]: in the experiment on SARS-CoV-2, the “SI (selectivity index)” value came to 2909 and the EC50 (in general, the concentration that produces a half-maximal response) stood at 0.0519 ± 0.00512 µM. Also, at SARS-CoV-2 M^pro, the IC50 (in general, the concentration that gives 50% inhibition) came to 3.22 ± 2.83 µM and the “IC50 against SARS-CoV-2 M^pro” value is recorded as “low micromolar concentrations”.
Take `Cc1cccn2c(=O)c3cc(C(=O)Nc4ccc(N(C)C)cc4)n(C)c3nc12` [Compound 26, N-(4-(Dimethylamino)phenyl)-1,9-dimethyl-4-oxo-1,4-dihydropyrido[1,2-a]pyrrolo[2,3-d]-pyrimidine-2-carboxamide]: the “Antiviral assay (qPCR) Inhibition %” value with SARS-CoV-2 (10 µM) is reported as 94.05%. In addition, the “SI (selectivity index)” value in the experiment on SARS-CoV-2 is 2323. Further, half-maximal inhibition against SARS-CoV-2 M^pro (IC50) required 407.5 ± 3.44 µM.
For the compound `CCC(CC)COC(=O)[C@H](C)N[P@](=O)(OC[C@H]1O[C@@](C#N)(c2ccc3c(N)ncnn23)[C@H](O)[C@@H]1O)Oc1ccccc1` [Remdesivir, reference compound], the “SI (selectivity index)” value with SARS-CoV-2 is 7195.
For the compound `Cn1c(C(=O)Nc2ccc(Cl)cc2)cc2c(=O)n3ccccc3nc21` [Compound 22, N-(4-Chlorophenyl)-1-methyl-4-oxo-1,4-dihydropyrido[1,2-a]pyrrolo[2,3-d]pyrimidine-2-carboxamide], in the experiment with SARS-CoV-2, the “SI (selectivity index)” value worked out at 1766 and the EC50 worked out at 0.109 ± 0.0111 µM. At SARS-CoV-2 M^pro, this compound yielded a half-maximal inhibitory concentration (IC50) of 236 ± 4.29 µM.
For the compound `Cc1cc(NC(=O)c2cc3c(=O)n4cccc(C)c4nc3n2C)ccc1Br` [Compound 28, N-(4-Bromo-3-methylphenyl)-1,9-dimethyl-4-oxo-1,4-dihydropyrido[1,2-a]pyrrolo[2,3-d]-pyrimidine-2-carboxamide], in the experiment with SARS-CoV-2, the “SI (selectivity index)” value came to 1278. Further, it took 46 ± 8.62 µM to reach half-maximal inhibition against SARS-CoV-2 M^pro (IC50).
The matching figures for `Cc1ccc(NC(=O)c2cc3c(=O)n4cccc(C)c4nc3n2C)cc1Cl` [Compound 27, N-(3-Chloro-4-methylphenyl)-1,9-dimethyl-4-oxo-1,4-dihydropyrido[1,2-a]pyrrolo[2,3-d]-pyrimidine-2-carboxamide]: 622.2 and 165 ± 16.7 µM.
The like results for `CCc1ccc(NC(=O)c2cc3c(=O)n4ccccc4nc3n2C)cc1` [Compound 24, N-(4-Ethylphenyl)-1-methyl-4-oxo-1,4-dihydropyrido[1,2-a]pyrrolo[2,3-d]pyrimidine-2-carboxamide] were, in that order, 283.3 and 82.2 ± 15 µM.
Consider `CC(=O)c1cccc(NC(=O)c2cc3c(=O)n4ccccc4nc3n2C)c1` [Compound 25, N-(3-Acetylphenyl)-1-methyl-4-oxo-1,4-dihydropyrido[1,2-a]pyrrolo[2,3-d]pyrimidine-2-carboxamide], for which the “SI (selectivity index)” value with SARS-CoV-2 amounted to 1135. At SARS-CoV-2 M^pro, the IC50 amounted to 5.42 µM and the “IC50 against SARS-CoV-2 M^pro” value was “low micromolar concentrations”.
In the case of `O=C(Nc1ccccc1F)c1cc2c(=O)n3ccccc3nc2n1Cc1ccccc1` [Compound 21, 1-Benzyl-N-(2-fluorophenyl)-4-oxo-1,4-dihydropyrido[1,2-a]pyrrolo[2,3-d]pyrimidine-2-carboxamide], the “SI (selectivity index)” value with SARS-CoV-2 is recorded as 3544. In addition, the IC50 against SARS-CoV-2 M^pro was determined as 25.4 ± 2.4 µM.
